Assay results as given in PMC5371667, “Targeting Bile Acid Receptors: Discovery of a Potent and Selective Farnesoid X Receptor Agonist as a New Lead in the Pharmacological Approach to Liver Diseases” (Frontiers in Pharmacology, 2017).

Columns and labels:
hFXR = target: T1, hFXR (Homo sapiens, UniProt Q96RI1); test: FXR transactivation on HepG2 cells (luciferase reporter); format: cell-based
T1 construct: expressed in transfected cells; host or cells: HepG2
T1 sequence (Q96RI1 1-486): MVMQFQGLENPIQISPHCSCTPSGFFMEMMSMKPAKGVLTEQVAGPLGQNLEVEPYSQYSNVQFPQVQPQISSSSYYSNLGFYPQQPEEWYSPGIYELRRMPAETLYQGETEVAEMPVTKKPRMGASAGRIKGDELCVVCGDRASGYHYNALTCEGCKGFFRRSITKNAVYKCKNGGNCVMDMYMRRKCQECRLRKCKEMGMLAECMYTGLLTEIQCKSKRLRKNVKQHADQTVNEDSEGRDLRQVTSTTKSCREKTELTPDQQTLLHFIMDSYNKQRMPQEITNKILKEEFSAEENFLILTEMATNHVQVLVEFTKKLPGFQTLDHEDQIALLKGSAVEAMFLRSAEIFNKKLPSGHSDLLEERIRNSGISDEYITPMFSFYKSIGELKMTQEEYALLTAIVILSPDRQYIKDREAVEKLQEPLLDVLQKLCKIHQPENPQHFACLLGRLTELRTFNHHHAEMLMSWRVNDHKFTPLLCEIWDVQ
T1 sequence (P19793 1-462 partner): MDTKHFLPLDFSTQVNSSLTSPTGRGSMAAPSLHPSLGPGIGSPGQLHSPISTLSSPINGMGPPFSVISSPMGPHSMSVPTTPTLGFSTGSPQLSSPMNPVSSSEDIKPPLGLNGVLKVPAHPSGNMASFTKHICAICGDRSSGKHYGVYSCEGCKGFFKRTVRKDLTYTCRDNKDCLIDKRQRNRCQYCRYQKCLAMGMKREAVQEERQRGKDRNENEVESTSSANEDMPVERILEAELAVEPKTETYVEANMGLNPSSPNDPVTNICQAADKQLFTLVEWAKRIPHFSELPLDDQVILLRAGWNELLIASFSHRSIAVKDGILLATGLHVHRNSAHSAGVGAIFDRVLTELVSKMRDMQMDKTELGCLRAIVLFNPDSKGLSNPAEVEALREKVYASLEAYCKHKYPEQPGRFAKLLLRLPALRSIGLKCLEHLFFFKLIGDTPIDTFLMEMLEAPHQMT
Procedure: HepG2 (HB, 8065 from ATCC), an immortalized human epatocarcinoma cell line, was cultured and maintained at 37°C and 5% CO2 in E-MEM additioned with 10% FBS, 1% glutamine, and 1% penicillin/streptomycin. For FXR mediated transactivation, HepG2 cells were plated at 5 × 10^4 cells/well in a 24 well plate. Cells were transfected with 200 ng of the reporter vector p(hsp27)-TK-LUC containing a FXR response element (IR1) cloned from the promoter of heat shock protein 27 (hsp27), 100 ng of pSG5-FXR, 100 ng of pSG5-RXR, and 100 ng of pGL4.70 (Promega), a vector encoding the human Renilla gene. For GPBAR1 mediated transactivation, HepG2 cells were plated at 5 × 10^4 cells/well in a 24 well-plate and transfected with 200 ng of pGL4.29 (Promega), a reporter vector containing a cAMP response element (CRE) that drives the transcription of the luciferase reporter gene luc2P, with 100 ng of pCMVSPORT6-human GPBAR1, and with 100 ng of pGL4.70 Renilla. […]. TLCA (10 μM) was used as a positive control for GPBAR1 activity.
HepG2 cells were transfected as described above and then treated with increasing concentrations of compounds. At 18 h post stimulations, cellular lysates were assayed for luciferase and Renilla activities using the Dual-Luciferase Reporter assay system (E1980, Promega). Luminescence was measured using Glomax 20/20 luminometer (Promega). Luciferase activities were normalized with Renilla activities.

human GPBAR1 = target: T2, human GPBAR1 (Homo sapiens, UniProt Q8TDU6); test: GPBAR1 transactivation on HepG2 cells (CRE luciferase reporter); format: cell-based; details: 50 and 100 μM
T2 construct: expressed in transfected cells; host or cells: HepG2
T2 sequence (Q8TDU6 1-330): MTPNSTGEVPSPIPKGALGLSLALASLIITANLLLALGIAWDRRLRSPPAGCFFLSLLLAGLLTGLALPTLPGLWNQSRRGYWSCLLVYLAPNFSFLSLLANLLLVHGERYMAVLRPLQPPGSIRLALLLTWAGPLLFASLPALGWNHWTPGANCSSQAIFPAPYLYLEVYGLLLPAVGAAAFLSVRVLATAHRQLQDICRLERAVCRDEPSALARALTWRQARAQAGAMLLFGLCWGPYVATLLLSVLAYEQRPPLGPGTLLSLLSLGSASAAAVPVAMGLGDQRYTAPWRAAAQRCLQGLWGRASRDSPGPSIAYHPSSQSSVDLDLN
Procedure: For FXR mediated transactivation, HepG2 cells were plated at 5 × 10^4 cells/well in a 24 well plate. Cells were transfected with 200 ng of the reporter vector p(hsp27)-TK-LUC containing a FXR response element (IR1) cloned from the promoter of heat shock protein 27 (hsp27), 100 ng of pSG5-FXR, 100 ng of pSG5-RXR, and 100 ng of pGL4.70 (Promega), a vector encoding the human Renilla gene. For GPBAR1 mediated transactivation, HepG2 cells were plated at 5 × 10^4 cells/well in a 24 well-plate and transfected with 200 ng of pGL4.29 (Promega), a reporter vector containing a cAMP response element (CRE) that drives the transcription of the luciferase reporter gene luc2P, with 100 ng of pCMVSPORT6-human GPBAR1, and with 100 ng of pGL4.70 Renilla. […] TLCA (10 μM) was used as a positive control for GPBAR1 activity.

With CC[C@H]1[C@@H](O)[C@@H]2[C@H](CC[C@]3(C)[C@@H]([C@H](C)CCC(=O)O)CC[C@@H]23)[C@@]2(C)CC[C@H](N=[N+]=[N-])C[C@@H]12 [compound 2, 3β-azido-6α-ethyl-7α-hydroxy-5β-cholan-24-oic acid] the EC50 (hFXR; 10 nM to 25 μM, 18 h) was 846 nM, the “FXR transactivation compared with 6-ECDCA” value (hFXR; 10 μM) was “equipotent with 6-ECDCA” and the GPBAR1 transactivation (human GPBAR1) was “inactivity”.
